In patent US10034860B2, “Estrogen receptor modulator for the treatment of locally advanced or metastatic estrogen receptor positive breast cancer” (Genentech, Inc., priority 2013, dated 2018):

Legend:
[1] = tested on: breast cancer cell lines; experiment: breast tumor cell proliferation; type: cell-based
[2] = oral bioavailability; conditions: in vivo
[3] = parameters: species or system postmenopausal women; conditions: in vivo
Procedure: If the safety and PK profile seen in the Phase I (dose escalation) portion of the study are deemed favorable to justify further continuation of the study, dose escalation will be followed by an expansion cohort to further confirm safety and tolerability and assess preliminary evidence of antitumor activity (Phase IIa).
(§1) A preliminary analysis of the first 41 patients enrolled in the Phase I study described in Example 1 was conducted. 41 patients were enrolled in the Phase I portion of the study, across 9 different dose escalation cohorts. The patients were postmenopausal women with advanced or metastatic breast cancer that had previously relapsed or progressed following prior therapy with the aromatase inhibitors anastrozole, exemestane, and letrozole (90%), chemotherapy (68%), including capecitabine (27%), tamoxifen (54%), fulvestrant (41%), everolimus (19%), and also other investigational agents (17%).

[4] = tested on: ER and Ki-67 levels in tumor specimens; experiment: Phase I clinical trial: tumor biopsies, ER and Ki-67 levels; parameters: species or system postmenopausal women; conditions: in vivo
Description: Pre- and post-treatment tumor biopsies (soft tissue or visceral lesions) will be collected to evaluate: • Tumor Histology; tumor vs. stroma, vs fibrotic tissue • ERα and PR protein levels by immunohistochemistry or immunofluorescence • Proliferative Index (Ki67) • ER target gene modulation: Examples of ER target genes thay maybe monitored include, but are not limited to: AGR2, AREG, C3, CCND1, CXCL12, ERBB2, GREB1, IL6, IRS1, PDZK1, PGR, SEMA3B, TFF1, TFF2, TFF3, TOP2A, WISP2. Circulating Tumor DNA (ctDNA)
as §1

[5] = tested on: xenograft models of ER+ breast cancer; experiment: tamoxifen-sensitive and tamoxifen-resistant xenograft models of ER+ breast cancer; type: in vivo
[6] = tested on: advanced or metastatic ER+ (HER2−) breast cancer; experiment: Phase I clinical trial: safety and clinical benefit; type: in vivo
Description: The MTD and/or RP2D will be defined as the dose with ≤1 out of 6 patients with Dose Limiting Toxicity (DLT). Dose Limiting Toxicity (DLT) Definition: Any Grade ≥3 non-hematology toxicity (excluding alopecia); Any Grade ≥3 hematology toxicity >7 days; Any Grade toxicity that leads to study drug interruption >7 days.
Disease assessments will be performed. Imaging studies will include a CT scan of the chest, abdomen, and pelvis, plus a bone scan. Radiographic confirmation of objective tumor response or disease progression will be based on RECIST v1.1 (Eisenhauer, 2009). For new bone lesions detected on bone scans, a second imaging modality (e.g., CT or MRI) will be required to confirm progression.
as §1

Row | SMILES | breast tumor cell proliferation [1] | oral bioavailability [2] | dose at which target plasma concentrations were achieved ([3]; female, human) [mg QD] | pharmacokinetic profile ([3]; po) | ER and Ki-67 levels in tumor specimens [4] | tolerability ([5]; all doses, xenograft models) | efficacious dose range ([5]; all xenograft models) [mg/kg/day] | anti-tumor activity ([5]; tamoxifen-sensitive and tamoxifen-resistant xenograft models) | safety and tolerability ([6]; 41 patients, progressed on a median of 4 prior treatments) | preliminary overall clinical benefit rate ([6]; all patients, preliminary analysis) [%] | preliminary clinical benefit rate ([6]; patients previously treated with fulvestrant) [%] | efficacy compared with the acrylic acid compound ([5]; tamoxifen-resistant xenograft models)
1 | CC/C(=C(/c1ccc(/C=C/C(=O)O)cc1)c1ccc2[nH]ncc2c1)c1ccc(F)cc1Cl [(E)-3-(4-((E)-2-(2-chloro-4-fluorophenyl)-1-(1H-indazol-5-yl)but-1-en-1-yl)phenyl)acrylic acid] | inhibition of breast tumor cell proliferation | good oral bioavailability | ≥ 600 | linear and dose proportional | reduced | very well tolerated | 10 to 100 | dose dependent anti-tumor activity | safe and well tolerated | 42 | 35 | –
2 | C[C@]12CC[C@@H]3c4ccc(O)cc4C[C@@H](CCCCCCCCC[S+]([O-])CCCC(F)(F)C(F)(F)F)[C@H]3[C@@H]1CC[C@@H]2O (stereo partly drawn) [fulvestrant, reference compound] | – | – | – | – | – | – | – | – | – | – | – | less efficacious
